Laboratory results from PMC12678798, “Discovery of an allosteric binding site for anthraquinones at the human P2X4 receptor” (Nature Communications, 2025).

Columns and labels:
[1] = target: T1, chimeric P2X4(P2X2) receptor c10^R301-Q308 (Homo sapiens, UniProt Q99571, A304N/D302K/DEL301-301/E307T/L303I/N306T/Q308T); parameters: method as in ref 19 (supplement); details: read-out: ATP EC50, published value, ref 19 (supplement); cited from earlier work
T1 construct: expressed in transfected cells; gene synthesis (Geneart), pLVX-IRES-mCherry (bicistronic, mCherry not fused)
T1 sequence (Q99571 with tags, fused parts or gaps DEL301-301/D302K/L303I/A304N/N306T/E307T/Q308T): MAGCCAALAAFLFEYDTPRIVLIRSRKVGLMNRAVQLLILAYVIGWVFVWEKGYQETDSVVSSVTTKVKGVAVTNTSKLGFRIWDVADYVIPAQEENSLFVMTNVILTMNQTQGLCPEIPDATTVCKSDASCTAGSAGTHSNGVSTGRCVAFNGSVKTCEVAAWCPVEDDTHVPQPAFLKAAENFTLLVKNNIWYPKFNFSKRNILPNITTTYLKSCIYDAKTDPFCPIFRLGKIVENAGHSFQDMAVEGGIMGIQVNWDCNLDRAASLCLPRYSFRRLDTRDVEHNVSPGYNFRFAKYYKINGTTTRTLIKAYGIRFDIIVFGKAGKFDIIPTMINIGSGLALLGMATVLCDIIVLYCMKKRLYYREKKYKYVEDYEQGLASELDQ

zebrafish P2X4 receptor = tested on: zebrafish P2X4 receptor; parameters: method as in PMID 19641588, PMID 12127972; details: cited from earlier work
[2] = target: T2, wild-type (wt) human (h) P2X4 receptor (Homo sapiens, UniProt Q99571); experiment: Two-electrode voltage clamp (TEVC), wt hP2X4 in Xenopus laevis oocytes; type: cell-based; details: TEVC at -60 mV
T2 construct: host or cells: Xenopus laevis oocytes injected with cRNA (pNKS2 vector)
Description: Xenopus laevis frogs were from Nasco International (Fort Atkinson, WI, USA) and kept at the Core Facility Animal Models (CAM) of the BMC of LMU Munich, Germany (Az: 4.3.2–5682/LMU/BMC/CAM) in accordance with the EU Animal Welfare Act. […] Fifty nanoliters of cRNA (0.5 µg/µL) were injected using a Nanoject II injector (Science Products, Drummond, USA) and oocytes were kept in ND96 (96 mM NaCl, 2 mM KCl, 1 mM MgCl2, 1 mM CaCl2, 5 mM HEPES, pH 7.4–7.5) supplemented with 5 μg/mL gentamicin at 16 °C.
cDNA encoding human P2X4 receptor (NM_002560.3) was obtained from BioCat GmbH (Heidelberg, Germany) and cloned into the pNKS2 vector[87] using Gibson Assembly (E2621L, New England Biolabs, USA) according to the manufacturer’s instructions. Point mutations were introduced by site-directed mutagenesis using KLD Enzyme Mix (M0554S, New England Biolabs, USA). All constructs were verified by full-length cDNA sequencing (Eurofins Genomics, Germany). Plasmids were linearized with NotI-HF (R3189S, New England Biolabs, USA) and purified using the MinElute Reaction Cleanup Kit (Qiagen, Hilden, Germany). […]
Statistical analysis was performed with GraphPad Prism version 10 software, and data are presented as means ± SEM. Data were assessed for normality using the Shapiro–Wilk test and for homogeneity of variances using Levene’s test. […]

T2 sequence (Q99571 whole entry): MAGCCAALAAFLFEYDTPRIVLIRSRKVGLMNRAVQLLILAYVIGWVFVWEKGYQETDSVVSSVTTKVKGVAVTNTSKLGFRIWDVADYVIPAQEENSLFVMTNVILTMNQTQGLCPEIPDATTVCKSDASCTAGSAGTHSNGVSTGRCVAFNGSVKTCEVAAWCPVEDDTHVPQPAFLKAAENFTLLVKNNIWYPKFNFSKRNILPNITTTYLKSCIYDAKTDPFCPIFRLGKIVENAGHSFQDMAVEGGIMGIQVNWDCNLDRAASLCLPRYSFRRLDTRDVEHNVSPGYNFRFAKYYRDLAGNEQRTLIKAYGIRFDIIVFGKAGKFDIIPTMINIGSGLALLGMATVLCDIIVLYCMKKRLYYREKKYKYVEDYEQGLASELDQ

Nc1ncnc2c1ncn2[C@@H]1O[C@H](COP(=O)(O)OP(=O)(O)OP(=O)(O)O)[C@@H](O)[C@H]1O [ATP, Adenosine 5′-triphosphate]
EC50 [1]: 0.862 µM
Potency of ATP at the zebrafish P2X4 receptor lower than at the human P2X4 receptor (zebrafish P2X4 receptor): about 700 fold
EC50 [2]: ~10 µM
